The values below come from publication PMC9598282 (Antibiotics, 2022).

In assay [1] the test system is P. aeruginosa PA 107092. The assay can be described thus: Time-kill assay. The assay is classed as cell-based, Pseudomonas aeruginosa. The note with it: for log10 increase (bacterial growth) over 24 h: monotherapy, 8 μg/mL. As for the experimental part: To study the time-dependent killing effects of the drug combinations, the time-kill kinetics were assessed. The time-kill assay was performed following the 8 μM (2 μg/mL) concentration of avibactam used in the checkerboard assay. […] This concentration also corresponds to the susceptibility breakpoint of both β-lactams.
For the preparation of the bacterial solution, an overnight grown culture was diluted in 0.85% saline solution and adjusted to 0.5 McFarland turbidity. […] The culture tubes were incubated at 37 °C, shaking at 250 rpm. At the appointed time intervals, a 100-μL aliquot was taken from each tube, serially diluted in phosphate-buffered saline (PBS) and plated on LB agar plates. The plates were incubated at 37 °C, and bacterial colonies were counted after 18 h. The bactericidal or bacteriostatic activity is determined based on the decrease in CFU over the time period. Bactericidal activity corresponds to ≥3 log10 reduction in CFU/mL, while bacteriostatic activity corresponds to <3 log10 reduction in CFU/mL.

In assay [2] the test system is P. aeruginosa P262-101856. As to the kind of experiment: Checkerboard assay. The assay is classed as cell-based, Pseudomonas aeruginosa. The note with it: one value per checkerboard plate; for MIC: Pseudomonas aeruginosa, P262101856, agent alone; for MIC alone: agent alone. As for the experimental part:
(§1) The adjuvant properties of the guanidinylated polymyxins were evaluated using the checkerboard assay as previously described. The bacterial solution was prepared as described in the antimicrobial susceptibility assay. The antibiotic of interest and the adjuvant were serially diluted two-fold along the x- and y-axis on a 96-well plate, respectively, resulting in varying concentrations of both agents in each well. Equal volumes of bacterial solution were added to the designated wells. The well consisting of bacterial solution served as the positive control, while the wells containing only media served as the negative control. The plate was then incubated at 37 °C for 18 h. After incubation, an Emax Plus microplate reader (Molecular Devices, Union City, CA, USA) was used to measure the OD at a wavelength of 590 nm to confirm the turbidity. The fractional inhibitory concentration (FIC) index was then determined to establish the relationship between the antibiotic and adjuvant. The FIC index corresponds to the sum of the FICs of the antibiotic and adjuvant. The FIC of each agent is calculated by dividing its MIC when it is used in combination by its MIC when used alone. FIC indices ≤0.5, 0.5 < x ≤ 4 and >4 indicate synergy, additivity and antagonism, respectively.

In another assay the test system is P. aeruginosa 101243. The assay can be described thus: Checkerboard assay. The note with it: one value per checkerboard plate; for MIC: Pseudomonas aeruginosa, 101243, agent alone; for MIC alone: agent alone. The assay is classed as cell-based, Pseudomonas aeruginosa. As for the experimental part:
as §1

In another assay the test system is P. aeruginosa P259-96918. The assay can be described thus: Checkerboard assay. The assay is classed as cell-based, Pseudomonas aeruginosa. The note with it: Pseudomonas aeruginosa, P25996918; agent alone, one value per checkerboard plate. As for the experimental part: as §1
The test system of assay [3] is P. aeruginosa P264-104354. The assay can be described thus: Checkerboard assay. The assay is classed as cell-based, Pseudomonas aeruginosa. The note with it: one value per checkerboard plate; for MIC: Pseudomonas aeruginosa, P264104354, agent alone. As for the experimental part: as §1
The next assay relates to A. baumannii AB031. The assay can be described thus: Checkerboard assay. Format: cell-based, Acinetobacter baumannii. The note with it: Acinetobacter baumannii, AB031, agent alone, one value per checkerboard plate. As for the experimental part:
as §1

The subject of a further assay is P. aeruginosa PAO1. The assay can be described thus: microbe, parasite or virus in culture. Format: cell-based, Pseudomonas aeruginosa. The note with it: for MIC: Pseudomonas aeruginosa, PAO1, 18 h, agent alone, one value per checkerboard plate, read-out: MIC alone. In outline:
(§2)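 Two-fold serial dilutions of antibiotic and guanidinylated polymyxin adjuvant crossed in checkerboard against bacterial inoculum prepared as for susceptibility testing; 18 h at 37 °C, growth read as OD590. FIC index = sum of each agent's MIC in combination divided by its MIC alone; ≤0.5 synergy, >0.5–4 additivity, >4 antagonism.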

A further assay concerns P. aeruginosa 114228. As to the kind of experiment: microbe, parasite or virus in culture. The assay is classed as cell-based, Pseudomonas aeruginosa. The note with it: one value per checkerboard plate; for MIC: Pseudomonas aeruginosa, 114228, agent alone; for MIC alone: agent alone. The method in brief:
as §2

A further assay relates to P. aeruginosa PA 86052. Format: cell-based, Pseudomonas aeruginosa. The note with it: one value per checkerboard plate. As for the experimental part: as §1
Assay [4] concerns P. aeruginosa PA 107092. The assay is classed as cell-based, Pseudomonas aeruginosa. As for the experimental part: as §1
For the next assay, the system named is P. aeruginosa PA 88949. Format: cell-based, Pseudomonas aeruginosa. The note with it: one value per checkerboard plate. As for the experimental part: as §1
The subject of another assay is P. aeruginosa PA 109084. The assay is classed as cell-based, Pseudomonas aeruginosa. As for the experimental part:
as §1

For the next assay, the system named is A. baumannii ATCC 17978. The assay can be described thus: microbe, parasite or virus in culture. The assay is classed as cell-based, Acinetobacter baumannii. The note with it: for MIC: Acinetobacter baumannii, ATCC17978, 18 h, agent alone, one value per checkerboard plate, read-out: MIC alone. In outline: as §2
The subject of a further assay is A. baumannii AB027. As to the kind of experiment: microbe, parasite or virus in culture. Format: cell-based, Acinetobacter baumannii. The note with it: Acinetobacter baumannii, AB027, agent alone, one value per checkerboard plate. In outline:
as §2

The subject of another assay is A. baumannii 92247. The assay can be described thus: microbe, parasite or virus in culture. The assay is classed as cell-based, Acinetobacter baumannii. The note with it: one value per checkerboard plate; for MIC: Acinetobacter baumannii, 92247, agent alone; for MIC alone: agent alone. In outline: as §2
In a further assay the test system is E. coli 107115. As to the kind of experiment: microbe, parasite or virus in culture. The note with it: Escherichia coli, 107115, agent alone, one value per checkerboard plate. The assay is classed as cell-based, Escherichia coli. As for the experimental part: as §1
The next assay relates to E. coli ATCC 25922. As to the kind of experiment: microbe, parasite or virus in culture. The assay is classed as cell-based, Escherichia coli. Set-up: key to FIC index antibiotic + GCol / FIC index antibiotic + GPMB: sum of FICs; ≤0.5 synergy, 0.5–4 additivity, >4 antagonism. The note with it: for MIC: Escherichia coli, ATCC25922, 18 h, agent alone, one value per checkerboard plate, read-out: MIC alone. In outline:
as §2

A further assay relates to A. baumannii 110193. The assay can be described thus: microbe, parasite or virus in culture. The assay is classed as cell-based, Acinetobacter baumannii. The note with it: Acinetobacter baumannii, 110193, agent alone, one value per checkerboard plate. In outline: as §2
The mark [5] stands for this setting: one value per checkerboard plate.

Each structure is given as a SMILES string. Values joined by “and” are separate entries in the source; they are usually repeats but may differ in a detail not shown here. Equal values may be shown once. Read-outs that look alike come from different tables or passages of the source.

Consider `C[C@H]1[C@H](NC(=O)/C(=N\OC(C)(C)C(=O)O)c2csc(N)n2)C(=O)N1S(=O)(=O)O` [Aztreonam], for which the “log10 increase (bacterial growth) over 24 h” value in the assay on P. aeruginosa PA 107092 [1] was 2 to 3 log10. The MIC in assay [2] was 32 µg/mL; with P. aeruginosa 101243, 16 µg/mL; in the assay with P. aeruginosa P259-96918, 32 µg/mL; in [3] it was 64 µg/mL; in the assay with A. baumannii AB031, 64 µg/mL; in the assay on P. aeruginosa PAO1, 4 µg/mL. The MIC in the assay on P. aeruginosa 114228 was 16 µg/mL; with A. baumannii ATCC 17978 it was 64 µg/mL; in the assay on A. baumannii AB027, 1020 µg/mL; in the assay with A. baumannii 92247 it was 128 µg/mL; in the assay on E. coli 107115, 1020 µg/mL; in the assay on E. coli ATCC 25922, 0.25 µg/mL. In addition, the MIC alone in assay [2] turned out to be 64 µg/mL; with P. aeruginosa 101243, 32 µg/mL; in assay [3] (agent alone), 32 µg/mL; with P. aeruginosa 114228, 8 µg/mL; in the assay on A. baumannii 92247, 256 µg/mL. For the same compound, in the assay with P. aeruginosa PAO1, the “Absolute MIC of antibiotic at 4 μg/mL GCol” value is 0.5 µg/mL. The “Absolute MIC of antibiotic at 4 μg/mL GPMB” value in the assay on P. aeruginosa PAO1 is 0.25 µg/mL. The MIC antibiotic alone in the assay with P. aeruginosa PA 86052 was 64 µg/mL and 32 µg/mL; in the assay on P. aeruginosa PA 107092 [4] (setting [5]), 32 µg/mL and 64 µg/mL; in the assay with P. aeruginosa PA 107092 [4] (plates with 8 μM avibactam), 16 µg/mL and 8 µg/mL; with P. aeruginosa PA 88949 it was 16 µg/mL; with P. aeruginosa PA 109084 (setting [5]) it was 64 µg/mL; with P. aeruginosa PA 109084 (plates with 8 μM avibactam) it was 8 µg/mL. Also, the “Absolute MIC of antibiotic at 2 μg/mL GCol” value with A. baumannii ATCC 17978 was 64 µg/mL; in the assay on E. coli ATCC 25922, 0.031 µg/mL. Moreover, the “Absolute MIC of antibiotic at 2 μg/mL GPMB” value is 32 µg/mL in the assay on A. baumannii ATCC 17978 and 0.016 µg/mL in the assay on E. coli ATCC 25922. Also, the “FIC index antibiotic + GCol” value with E. coli ATCC 25922 was determined as 0.188.

In the case of `CC(C)(O/N=C(\C(=O)N[C@@H]1C(=O)N2C(C(=O)[O-])=C(C[n+]3ccccc3)CS[C@H]12)c1csc(N)n1)C(=O)O` [Ceftazidime], the “log10 increase (bacterial growth) over 24 h” value in the assay on P. aeruginosa PA 107092 [1] is recorded as ~ 2 log10. The MIC in assay [2] came out at 8 µg/mL; in the assay on P. aeruginosa 101243, 64 µg/mL; in the assay on P. aeruginosa P259-96918, 512 µg/mL; in [3], 64 µg/mL; in the assay on A. baumannii AB031, 32 µg/mL; with P. aeruginosa PAO1, 2 µg/mL. Further, the MIC with P. aeruginosa 114228 was 4 µg/mL; with A. baumannii ATCC 17978, 16 µg/mL; in the assay with A. baumannii AB027 it was 2050 µg/mL; in the assay with A. baumannii 110193, 64 µg/mL; in the assay with A. baumannii 92247, 16 µg/mL; with E. coli 107115, 512 µg/mL. The MIC in the assay with E. coli ATCC 25922 stood at 0.25 µg/mL. The MIC alone in assay [2] is 16 µg/mL; in the assay on P. aeruginosa 101243, 32 µg/mL; in the assay on P. aeruginosa 114228, 8 µg/mL; in the assay on A. baumannii 92247, 32 µg/mL. Besides, the “Absolute MIC of antibiotic at 4 μg/mL GCol” value in the assay on P. aeruginosa PAO1 came out at 0.25 µg/mL. For the same compound, the MIC antibiotic alone in the assay on P. aeruginosa PA 86052 was 64 µg/mL; with P. aeruginosa PA 107092 [4] (setting [5]), 64 µg/mL; in the assay on P. aeruginosa PA 107092 [4] (plates with 8 μM avibactam) it was 16 µg/mL and 8 µg/mL; in the assay on P. aeruginosa PA 88949 it was 32 µg/mL; in the assay with P. aeruginosa PA 109084 (setting [5]), 64 µg/mL and 128 µg/mL; in the assay with P. aeruginosa PA 109084 (plates with 8 μM avibactam), 16 µg/mL. The figures for the “Absolute MIC of antibiotic at 2 μg/mL GCol” value with A. baumannii ATCC 17978 and in the assay on E. coli ATCC 25922 were 4 µg/mL and 0.063 µg/mL, respectively. Also, the results for the “Absolute MIC of antibiotic at 2 μg/mL GPMB” value with A. baumannii ATCC 17978 and in the assay on E. coli ATCC 25922 were 4 µg/mL and 0.063 µg/mL, respectively.

Turning to `NC(=O)[C@@H]1CC[C@@H]2CN1C(=O)N2OS(=O)(=O)O` [avibactam], in the assay with P. aeruginosa PA 107092 [1] (ceftazidime 8 μg/mL + GCol 2 μM or avibactam 8 μM), the “time-kill effect of dual therapy with ceftazidime” value is reported as “bacteriostatic effect”.
